# Measured values taken from ChEMBL document CHEMBL3045792, “Synthesis, antimicrobial activity, and molecular modeling of novel 4-(3-(4-benzylpiperazin-1-yl)propoxy)-7-methoxy-3-substituted phenyl-2H-chromen-2-one” (2013).
# Active and inactive are the calls of the source. The rule behind the calls is not given here.
# Tests used:
# Format in all cases: functional
# [1] = system: Exserohilum rostratum; experiment: Antifungal activity against Setosphaeria rostrata assessed as growth inhibition at 900 ug/ml; conditions: read-out: IZ
# [2] = system: Fusarium oxysporum; experiment: Antifungal activity against Fusarium oxysporum assessed as growth inhibition at 600 ug/ml
# [3] = system: Fusarium oxysporum; experiment: Antifungal activity against Fusarium oxysporum assessed as growth inhibition at 900 ug/ml
# [4] = system: Colletotrichum falcatum; experiment: Antifungal activity against Glomerella tucumanensis assessed as growth inhibition at 600 ug/ml
# [5] = system: Fusarium oxysporum; experiment: Antifungal activity against Fusarium oxysporum assessed as growth inhibition at 1200 ug/ml
# [6] = system: Candida albicans; experiment: Antifungal activity against Candida albicans assessed as growth inhibition at 600 ug/ml; conditions: read-out: IZ
# [7] = system: Candida albicans; experiment: Antifungal activity against Candida albicans assessed as growth inhibition at 300 ug/ml; conditions: read-out: IZ
# [8] = system: Fusarium oxysporum; experiment: Antifungal activity against Fusarium oxysporum assessed as growth inhibition at 300 ug/ml
# [9] = system: Colletotrichum falcatum; experiment: Antifungal activity against Glomerella tucumanensis assessed as growth inhibition at 1200 ug/ml
# [10] = system: Exserohilum rostratum; experiment: Antifungal activity against Setosphaeria rostrata assessed as growth inhibition at 300 ug/ml; conditions: read-out: IZ
# [11] = system: Colletotrichum falcatum; experiment: Antifungal activity against Glomerella tucumanensis assessed as growth inhibition at 300 ug/ml
# [12] = system: Colletotrichum falcatum; experiment: Antifungal activity against Glomerella tucumanensis assessed as growth inhibition at 900 ug/ml
# [13] = system: Exserohilum rostratum; experiment: Antifungal activity against Setosphaeria rostrata assessed as growth inhibition at 1200 ug/ml; conditions: read-out: IZ
# [14] = system: Candida albicans; experiment: Antifungal activity against Candida albicans assessed as growth inhibition at 900 ug/ml; conditions: read-out: IZ
# [15] = system: Candida albicans; experiment: Antifungal activity against Candida albicans assessed as growth inhibition at 1200 ug/ml; conditions: read-out: IZ
# [16] = system: Exserohilum rostratum; experiment: Antifungal activity against Setosphaeria rostrata assessed as growth inhibition at 600 ug/ml; conditions: read-out: IZ
# [17] = system: Staphylococcus aureus; experiment: Antibacterial activity against Staphylococcus aureus assessed as growth inhibition at 600 ug/ml by NCCLS […] method; conditions: read-out: IZ
# [18] = system: Bacillus subtilis; experiment: Antibacterial activity against Bacillus subtilis assessed as growth inhibition at 600 ug/ml by NCCLS […] method; conditions: read-out: IZ
# [19] = system: Klebsiella aerogenes; experiment: Antibacterial activity against Enterobacter aerogenes assessed as growth inhibition at 600 ug/ml by NCCLS […] method; conditions: read-out: IZ
# [20] = system: Proteus mirabilis; experiment: Antibacterial activity against Proteus mirabilis assessed as growth inhibition at 900 ug/ml by NCCLS […] method; conditions: read-out: IZ
# [21] = system: Klebsiella pneumoniae; experiment: Antibacterial activity against Klebsiella pneumoniae assessed as growth inhibition at 600 ug/ml by NCCLS […] method; conditions: read-out: IZ
# [22] = system: Streptococcus pyogenes; experiment: Antibacterial activity against Streptococcus pyogenes assessed as growth inhibition at 600 ug/ml by NCCLS […] method; conditions: read-out: IZ
# [23] = system: Proteus vulgaris; experiment: Antibacterial activity against Proteus vulgaris assessed as growth inhibition at 600 ug/ml by NCCLS […] method; conditions: read-out: IZ
# [24] = system: Priestia megaterium; experiment: Antibacterial activity against Bacillus megaterium assessed as growth inhibition at 600 ug/ml by NCCLS […] method
# [25] = system: Escherichia coli; experiment: Antibacterial activity against Escherichia coli assessed as growth inhibition at 600 ug/ml by NCCLS […] method; conditions: read-out: IZ
# [26] = system: Bacillus pumilus; experiment: Antibacterial activity against Bacillus pumilus assessed as growth inhibition at 900 ug/ml by NCCLS […] method; conditions: read-out: IZ
# [27] = system: Proteus vulgaris; experiment: Antibacterial activity against Proteus vulgaris assessed as growth inhibition at 900 ug/ml by NCCLS […] method; conditions: read-out: IZ
# [28] = system: Proteus mirabilis; experiment: Antibacterial activity against Proteus mirabilis assessed as growth inhibition at 600 ug/ml by NCCLS […] method; conditions: read-out: IZ
# [29] = system: Staphylococcus aureus; experiment: Antibacterial activity against Staphylococcus aureus assessed as growth inhibition at 900 ug/ml by NCCLS […] method; conditions: read-out: IZ
# [30] = system: Escherichia coli; experiment: Antibacterial activity against Escherichia coli assessed as growth inhibition at 900 ug/ml by NCCLS […] method; conditions: read-out: IZ
# [31] = system: Priestia megaterium; experiment: Antibacterial activity against Bacillus megaterium assessed as growth inhibition at 900 ug/ml by NCCLS […] method
# [32] = system: Klebsiella pneumoniae; experiment: Antibacterial activity against Klebsiella pneumoniae assessed as growth inhibition at 900 ug/ml by NCCLS […] method; conditions: read-out: IZ
# [33] = system: Klebsiella aerogenes; experiment: Antibacterial activity against Enterobacter aerogenes assessed as growth inhibition at 900 ug/ml by NCCLS […] method; conditions: read-out: IZ
# [34] = system: Streptococcus pyogenes; experiment: Antibacterial activity against Streptococcus pyogenes assessed as growth inhibition at 900 ug/ml by NCCLS […] method; conditions: read-out: IZ
# [35] = system: Bacillus subtilis; experiment: Antibacterial activity against Bacillus subtilis assessed as growth inhibition at 900 ug/ml by NCCLS […] method; conditions: read-out: IZ
# [36] = system: Bacillus pumilus; experiment: Antibacterial activity against Bacillus pumilus assessed as growth inhibition at 600 ug/ml by NCCLS […] method; conditions: read-out: IZ
SMILES,zone of inhibition at 900 µg/mL [1] [mm],zone of inhibition at 600 µg/mL [6] [mm],zone of inhibition at 300 µg/mL [7] [mm],zone of inhibition at 300 µg/mL [10] [mm],zone of inhibition at 1200 µg/mL [13] [mm],zone of inhibition at 900 µg/mL [14] [mm],zone of inhibition at 1200 µg/mL [15] [mm],zone of inhibition at 600 µg/mL [16] [mm],zone of inhibition at 600 µg/mL [17] [mm],zone of inhibition at 600 µg/mL [18] [mm],zone of inhibition at 600 µg/mL [19] [mm],zone of inhibition at 900 µg/mL [20] [mm],zone of inhibition at 600 µg/mL [21] [mm],zone of inhibition at 600 µg/mL [22] [mm],zone of inhibition at 600 µg/mL [23] [mm],zone of inhibition at 600 µg/mL [25] [mm],zone of inhibition at 900 µg/mL [26] [mm],zone of inhibition at 900 µg/mL [27] [mm],zone of inhibition at 600 µg/mL [28] [mm],zone of inhibition at 900 µg/mL [29] [mm],also measured
CCC(C)n1ncn(-c2ccc(N3CCN(c4ccc(OCC5COC(Cn6cncn6)(c6ccc(Cl)cc6Cl)O5)cc4)CC3)cc2)c1=O (configuration not stated) [ITRACONAZOLE],14.8,5.35,2.67,3.56,27.4,12,23,7.56,,,,,,,,,,,,,zone of inhibition at 600 µg/mL ([2]; read-out: IZ): 10.8 mm; zone of inhibition at 900 µg/mL ([3]; read-out: IZ): 20 mm; zone of inhibition at 600 µg/mL ([4]; read-out: IZ): 9.34 mm; zone of inhibition at 1200 µg/mL ([5]; read-out: IZ): 34.4 mm; zone of inhibition at 300 µg/mL ([8]; read-out: IZ): 5.46 mm; zone of inhibition at 1200 µg/mL ([9]; read-out: IZ): 33.8 mm; zone of inhibition at 300 µg/mL ([11]; read-out: IZ): 4.45 mm; zone of inhibition at 900 µg/mL ([12]; read-out: IZ): 18.3 mm
COc1ccc2c(OCCCN3CCN(Cc4ccccc4)CC3)c(-c3ccccc3)c(=O)oc2c1,15.8,5.43,2.87,4.25,24.6,12,22.3,8.56,7.89,6.56,3.8,11.3,2.56,6.54,6.54,2.98,4.21,12.8,5.55,11.2,growth inhibition (GI) [2]: inactive; growth inhibition (GI) [3]: inactive; growth inhibition (GI) [4]: inactive; growth inhibition (GI) [5]: inactive; growth inhibition (GI) [24]: inactive; growth inhibition (GI) [8]: inactive; growth inhibition (GI) [9]: inactive; growth inhibition (GI) [11]: inactive; zone of inhibition at 900 µg/mL [30]: 5.76 mm; growth inhibition (GI) [31]: inactive; zone of inhibition at 900 µg/mL [32]: 4.98 mm; growth inhibition (GI) [12]: inactive; zone of inhibition at 900 µg/mL [33]: 7.53 mm; zone of inhibition at 900 µg/mL [34]: 11.9 mm; zone of inhibition at 900 µg/mL [35]: 12 mm; zone of inhibition at 600 µg/mL [36]: 2.27 mm
CN[C@@H]1[C@H](O[C@H]2[C@H](O[C@H]3[C@H](O)[C@@H](O)[C@H](N=C(N)N)[C@@H](O)[C@@H]3N=C(N)N)O[C@@H](C)[C@]2(O)C=O)O[C@@H](CO)[C@H](O)[C@H]1O [STREPTOMYCIN],,,,,,,,,10.3,8.44,4.47,20.3,3.24,8.19,8.9,3.06,14.5,16.1,12.8,20,zone of inhibition at 600 µg/mL ([24]; read-out: IZ): 6.23 mm; zone of inhibition at 900 µg/mL [30]: 6.14 mm; zone of inhibition at 900 µg/mL ([31]; read-out: IZ): 12.8 mm; zone of inhibition at 900 µg/mL [32]: 6.54 mm; zone of inhibition at 900 µg/mL [33]: 8.76 mm; zone of inhibition at 900 µg/mL [34]: 16.5 mm; zone of inhibition at 900 µg/mL [35]: 16.2 mm; zone of inhibition at 600 µg/mL [36]: 7.25 mm
